Measurements from paper PMC9410537, “Discovery of Ircinianin Lactones B and C—Two New Cyclic Sesterterpenes from the Marine Sponge Ircinia wistarii” (Marine Drugs, 2022).
Where two headings read alike, the source gives them in different places.

Key:
[1] = tested on: L-6 cells (rat skeletal myoblasts); assay: In vitro cytotoxicity assay with L-6 cells (resazurin); type: cell-based; details: L6, 70 h, read-out: IC50 L6
Protocol: In vitro cytotoxicity assay with L-6 cells. Assays were performed in 96-well microtiter plates, each well containing 100 μL of RPMI 1640 medium supplemented with 1% L-glutamine (200 mM) and 10% fetal bovine serum, and 4000 L-6 cells (a primary cell line derived from rat skeletal myoblasts). Serial drug dilutions ranged from 100 to 0.002 μg/mL. After 70 h of incubation, the plates were inspected under an inverted microscope to assure growth of the controls and sterile conditions. 10 μL of resazurin was then added to each well and the plates were incubated for another 2 h. […] Podophyllotoxin (Sigma P4405) was used as control (IC50 0.011 ± 0.005 μM).

[2] = tested on: T. cruzi Tulahuen strain C2C4; assay: Activity against T. cruzi in L-6 cells (beta-galactosidase/CPRG); type: cell-based, Trypanosoma cruzi; details: Tulahuen C2C4 in L-6 cells, Table 2 values are means of two independent assays
Protocol: Activity against T. cruzi. Rat skeletal myoblasts (L-6 cells) were seeded in 96-well microtiter plates at 2000 cells/well in 100 μL RPMI 1640 medium with 10% FBS and 2 mM L-glutamine. After 24 h, the media in each well was removed and replaced with 100 μL of fresh media containing 5000 trypomastigote forms of T. cruzi Tulahuen strain C2C4 containing the β-galactosidase (lacZ) gene. After 48 h, the media was removed from the wells again, and this time, replaced by 100 μL fresh medium with or without 1 from 100 to 0.002 μg/mL. After 96 h of incubation, the plates were inspected under an inverted microscope to assess growth and sterility of the controls. Then, the substrate CPRG/Nonidet (50 μL) was added to all wells. A color reaction developed within 2–6 h and could be read photometrically at 540 nm.

[3] = tested on: P. falciparum NF54 strain; assay: In vitro activity against erythrocytic stages of P. falciparum (3H-hypoxanthine incorporation assay); type: cell-based; details: Plasmodium falciparum, Table 2 values are means of two independent assays
Protocol: Activity against P. falciparum. In vitro activity against erythrocytic stages of P. falciparum was determined using a ^3H-hypoxanthine incorporation assay against the drug-sensitive NF54 strain [76]. Compounds were dissolved in DMSO at 10 mg/mL and further diluted in medium before being added to parasite cultures incubated in RPMI 1640 medium without hypoxanthine, supplemented with HEPES (5.94 g/L), NaHCO3 (2.1 g/L), neomycin (100 U/mL), Albumax^R (5 g/L) and washed human red cells A^+ at 2.5% haematocrit (0.3% parasitaemia). Serial drug dilutions ranged from 100 to 0.002 μg/mL. The 96-well plates were incubated in a humidified atmosphere at 37 °C; 4% CO2, 3% O2, 93% N2. After 48 h 50 μL of ^3H-hypoxanthine (=0.5 μCi) was added to each well of the plate. The plates were incubated for a further 24 h under the same conditions. The plates were then harvested with a Betaplate™ cell harvester (Wallac, Zurich, Switzerland) and the red blood cells were transferred onto a glass fiber filter then washed with distilled water. The dried filters were inserted into a plastic foil with 10 mL of scintillation fluid and counted in a Betaplate™ liquid scintillation counter (Wallac, Zurich, Switzerland). IC50 values were calculated from sigmoidal inhibition curves by linear regression using Microsoft Excel. Chloroquine diphosphate (Sigma C6628) was used as control (IC50 0.006 ± 0.002 μM).

[4] = Observed stability of the isolated compounds; type: physicochemical
Source text: The shift values of the terminal heterocycle were in very good agreement with literature data from similar natural products, bearing a γ-hydroxy-γ-butenolide moiety. Analogous to compound 7, the Δ^8,10 double bond of 8 was defined as E (C-9: δC 16.2 and NOESY cross correlations depicted in Figure 4). Likewise, based on the same observed diagnostic NOE crosspeaks for the indene system (Figure S43B) and for biogenetic reasons, we propose that 8 is 11R*, 15R*, 18S*, 20R*, 21S* configured. […] Therefore, we integrated computational methods and aimed for quantum-mechanical predictions of ^1H and ^13C NMR chemical shifts of a 1S- and a 1R-configured version of 8.
All tests were performed with 1 as a pre-screening for the scaffold’s activity within their respective assays. Based on the results from the pre-screening, the biological evaluation of the structural congeners was planned. Unfortunately, an instability phenomenon affected the purity of the isolated compounds. Due to the limited amounts of the isolated compounds, repurification would not have yielded the required sample quantity for the assays. This reality precluded biological evaluation of the structural congeners 3–8.

[5] = tested on: Trypanosoma brucei rhodesiense STIB900; assay: Activity against Trypanosoma brucei rhodesiense STIB900 (resazurin); details: Table 2 values are means of two independent assays
Protocol: Activity against Trypanosoma brucei rhodesiense STIB900. […] Minimum Essential Medium (50 µL) supplemented with 25 mM HEPES, 1 g/L additional glucose, 1% MEM non-essential amino acids (100×), 0.2 mM 2-mercaptoethanol, 1 mM Na-pyruvate and 15% heat inactivated horse serum was added to each well of a 96-well microtiter plate. Serial drug dilutions ranging from 100 to 0.002 μg/mL were prepared. Then, 4 × 10^3 bloodstream forms of T. b. rhodesiense STIB 900 in 50 µL were added to each well and the plate was incubated at 37 °C under a 5% CO2 atmosphere for 70 h. 10 µL of a resazurin solution (resazurin, 12.5 mg in 100 mL double-distilled water) was then added to each well and incubation continued for a further 2–4 h [70]. The plates were read with a Spectramax Gemini XS microplate fluorometer (Molecular Devices Cooperation, Sunnyvale, CA, USA) using an excitation wavelength of 536 nm and an emission wavelength of 588 nm. Data were analyzed using Softmax Pro (Molecular Devices Cooperation, Sunnyvale, CA, USA), which calculated IC50 values by linear regression [71] and 4-parameter logistic regression from the sigmoidal dose inhibition curves.

[6] = tested on: L. donovani strain MHOM/ET/67/L82 axenic amastigotes; assay: Activity against L. donovani axenic amastigotes (resazurin); type: cell-based, Leishmania donovani; details: in vitro, Table 2 values are means of two independent assays
Protocol: Activity against L. donovani axenic amastigotes. Amastigotes of L. donovani strain MHOM/ET/67/L82 were grown in axenic culture at 37 °C in SM medium at pH 5.4 supplemented with 10% heat-inactivated fetal bovine serum under an atmosphere of 5% CO2 in air. 100 µL of culture medium with 10^5 amastigotes from axenic culture with or without a serial drug dilution were seeded in 96-well microtiter plates. Serial drug dilutions ranged from 100 to 0.002 μg/mL. After 70 h of incubation, the plates were inspected under an inverted microscope to assure growth of the controls and sterile conditions.

COc1cc([C@@H]2c3cc4c(cc3[C@H](O)[C@H]3COC(=O)[C@H]23)OCO4)cc(OC)c1OC [Podophyllotoxin, reference compound]
IC50 [1]: 11 ± 5 nM

O=C(Cn1ccnc1[N+](=O)[O-])NCc1ccccc1 [benznidazole, Benznidazole, reference compound]
IC50 ([2]; Trypanosoma cruzi, TULAHUEN, L6, in vitro): 2310 ± 1150 nM
IC50 ([2]; in vitro): 3360 nM

CCN(CC)CCCC(C)Nc1ccnc2cc(Cl)ccc12 (stereo not drawn) [chloroquine, Chloroquine diphosphate, reference compound]
IC50 [3]: 6 nM

CC(=CC1C=C(C)C2CCC(C)C2C12OC(=O)C(C)=C2O)CCCC1=CC(=O)OC1O (stereo not drawn) [compound 8, Ircinianin lactone C]
Stability of isolated compound ([4]; rapid decomposition after the NMR measurements): unstable

Nc1nc(N)nc(Nc2ccc([As]3SCC(CO)S3)cc2)n1 (stereo not drawn) [melarsoprol, Melarsoprol, reference compound]
IC50 ([5]; Trypanosoma brucei, RHODESIENSE|STIB900, read-out: IC50 T. brucei rhodesiense, in vitro, STIB900 bloodstream forms): 13 ± 6 nM
IC50 ([5]; read-out: IC50 T. brucei rhodesiense, in vitro, STIB900 bloodstream forms): 20 nM

CCCCCCCCCCCCCCCCOP(=O)([O-])OCC[N+](C)(C)C [miltefosine, Miltefosine]
IC50 ([6]; Leishmania donovani): 650 ± 270 nM
IC50 [6]: 486 nM

Ircinianin lactone A [compound 6]
Stability of isolated compound [4]: unstable

Ircinianin lactone B [compound 7]
Stability of isolated compound [4]: unstable

Oxoircinianin [compound 3]
Stability of isolated compound [4]: unstable
